From paper PMC8899577, “Targeting the anti-apoptotic Bcl-2 family proteins: machine learning virtual screening and biological evaluation of new small molecules” (Theranostics, 2022)
Where two headings read alike, the source gives them in different places.

Tests used:
[1] = system: MDA-MB-231 breast carcinoma cells; test: Cell viability by MTT, MDA-MB-231; type: cell-based, Human; settings: 20 µM for 72 h, vs control
Method: (§1) The effect of compounds on cell viability was performed by measuring 3-[4,5-dimethylthiazol-2-yl]-2,5-diphenyltetrazolium bromide inner salt (MTT, Sigma-Aldrich) dye absorbance (solid tumor cells) or by quantization of ATP present in metabolically active cells using CellTiter-Glo® Luminescent (Promega, Fitchburg, Wisconsin, USA) (hematologic cells) following manifacturer's protocol. To evaluate the cell colony-forming ability, cell suspension from different samples was seeded into 60-mm Petri dishes. After 10 days, colonies were stained with 2% methylene blue in 95% ethanol and counted (1 colony > 50 cells). The surviving fractions were calculated as the ratio of absolute survival of the treated sample/survival of DMSO-treated control sample.
(§2) Figure 4 Analysis of the effect of IS20 and IS21 on cell viability, clonogenic ability and tumor sphere formation in cancer cells. […] (B) Representative images and quantification of clonogenic ability evaluated in M14 and H1299 cells treated with IS20 or IS21 (20 μM for 72 h). […] (C) Quantification of tumor sphere formation of M14 and H1299 cells treated with IS20 or IS21 (20 μM for 72 h). […] (A-C) Data are reported as mean ± SD of three independent experiments. p-values were calculated between control (Ctrl) and treated cells, ** p < 0.001 and *** p < 0.0001.

[2] = Pharmacokinetics in mouse plasma (LC-MS/MS); type: in vivo, C57/Bl6 mice; settings: mice, intraperitoneal; for Tmax: read-out: time of maximum plasma concentration after injection
Method: 184 In vivo experi ments. […]
186 30% PEG400 (Sigma-Al drich) and 60% NaCl. Mice were sacrificed starting from 15 min to 24 h
187 after injection. Blood samples were collected b y cardiac puncture, centri fuged at 3,000 g for 10 min
188 at 4 °C and the obtained plasma was stored at - 80 °C until the analysis performed b y liquid
189 chromatograph y tandem mass spectrometry (LC –MS/MS). Given that the two compounds were
190 singularl y administered to the animals for the pharmacokinetic studies, IS20 was used as internal
191 standard (IS) for IS21 and vice versa. Internal Standard Working Solutions (IS-WS) were prepared
192 by adding appropriate volumes of the stock solutions to 50 mL of 0.1% formic acid (Fluka, Milan,
193 Ital y) in methanol:acetonitrile (50:50, v/v, Sigma -Aldrich), in order to reach a final concentration of
194 50 ng/m L. The solutions were maintained at - 20°C.
195 LC-MS/MS Analysis. 40 µ L of mouse plasma were mixed with 160 µ L o f IS -WS. The mixture was
196 vortex mixed for 1 min and centrifuged at 12,000 g for 10 min at 4 °C. The supernatant was
197 collected and 8 µL were injected into the LC–MS/MS system. The HP LC equipment consists of a
198 Series 200 Micro-LC Pump and a Series 200 autosampler from Perkin Elm er (Norwalk, CT, USA).
199 A triple quadrupole mass spectrometer, AB-Sciex API2000 (Toronto, ON, Canada) was used for
200 detection. The anal yt es were anal yzed using a C18 phase Kinetex column (10 cm x 2.1 mm ID) fro m
201 Phenomenex (Torran ce, CA, USA) packed with core–shell particles of […]. The mobile phases
202 were (A) acetonitrile an d (B) water, both containing 0.1% formic acid, at a flow rate of 0.25 mL /
203 min and were entirel y transferred into the mass spectrometer source. Gradient elution was as
204 follows: increase of the organic phase from 60 to 80% in 0.8 min, then to 90% in the following 1.2
205 min and linearly to 100% in 2 min. Finally, after 3.9 min of 100% , the column was led to the
206 original conditions in 2.5 min to enable equilibration of the column.
207 Both anal ytes were detected in positive ionization with a capillar y voltage of 5500 V, nebulizer gas
208 (air) at 40 psi, turbo gas (nitrogen) at 70 psi and 400 °C. The other ion source parameters were set
209 as follows: curtain gas (CUR) 18 psi; collision gas (CAD) 6 psi; declustering potential (DP) 80 V,
210 entrance potential (EP) 1 2 V.
211 The quantitative data were acquired using Multi Reaction Monitoring (MRM) acquisition mode.
212 Two MRM transitions (precursor ion>fragment ion) were selected for the analytes. For IS20
214 eV while collision cell exit potential (CXP) was at 19 and 8 V for the two transitions, respectively.
216 and 51 eV while collision cell exit potential (CXP) was at 21 and 6 V for the two transitions,
218 The anal ytical method was validated according to FDA guidelines for bioanalytical method
219 validation. Linearity, recover y, matrix effect, precision, accurac y, limits of detection (LODs) and
220 lower limits of quantification (LLOQs) were evaluated.
221 Calibration standard solutions were prepared in blank plasma b y spiking 25 µL of a standard
222 mixture at appropriate concentration to 40 µL of plasma and by adding 140 µL of methanol:
223 acetonitrile (50:50, v/v). Calibrators were then treated similarly to the animal samples. The
224 calibration range was 5 to 7500 ng/ mL and the calibrators were prepared at nine level of
225 concentration. Precision, recover y and accurac y w ere ev aluated at three lev el of concentrations (25,
226 […]) and resulted within the acceptable limits.
227 The limit of detection (LOD) was defined as the lowest concentration with a signal- to-noise (S/N)
228 ratio greater than 3. The limit of quantification (LOQ) was defined as the concentration at which
229 both precision (RSD%) and accurac y were less than 20%. LOQ resulted to be 2 ng/ mL while LOD
231 The validated method was then successfully applied in measuring IS20 and IS21 following drug […]

H1299 NSCLC cells = test: Cell viability by MTT, H1299; type: cell-based, Human; settings: 20 µM for 72 h, vs control
Method: as §1, §2

H1299 cells = test: Clonogenic assay, H1299; type: cell-based, Human; settings: 20 µM for 72 h, respect to controls
Method: as §1, §2

HL60 cells = test: Western blot of LC3B-I/LC3B-II (autophagy), HL60; type: cell-based, Human; settings: 20 µM for 24 h
[3] = C57/Bl6, mouse, plasma, ip, 100 mg/kg

Structure (SMILES)	cell viability MDA-MB-231 [1]	Tmax [2, 3] [h]	cell viability H1299 (H1299 NSCLC cells)	decrease of cell colony formation, H1299 (H1299 cells)	ratio of LC3B-II on LC3B-I, HL60 (HL60 cells)	Cmax ([2]; C57/Bl6, mouse, ip, 50 mg/kg, plasma) [µM]	AUC ([2]; C57/Bl6, mouse, ip, 50 mg/kg, plasma, read-out: mean AUCtot) [µM·h]	half-life ([2]; C57/Bl6, mouse, ip, 50 mg/kg, plasma, read-out: mean t½ (converted)) [min]	Tmax ([2]; C57/Bl6, mouse, plasma, ip, 50 mg/kg) [h]	mean total clearance ([2]; 50 mg/kg) [mL/min/kg]
CCCCOc1ccc(C2/C(=C(\O)c3ccc4c(c3)CC(C)O4)C(=O)C(=O)N2c2nnc(SCc3ccc(Cl)cc3)s2)cc1OCC (stereo not drawn) [IS20]	not significantly perturbed	16	significant inhibition	80-90%	Increased ratio	–	–	–	–	–
CCCCCOc1ccc(C2/C(=C(\O)c3ccc4c(c3)CC(C)O4)C(=O)C(=O)N2c2nnc(SCc3ccc(Cl)cc3)s2)cc1OCC (stereo not drawn) [IS21]	not significantly perturbed	4	significant inhibition	80-90%	Increased ratio	4.1	40.9	660	2	26.3
